Experimental data as given in PubChem BioAssay (NCI).
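Five compound concentrations were applied to cells in 96-well plates for 48 hours; endpoints were derived by simple linear interpolation of the resulting dose-response curve. Definition used: TGI = concentration required for complete inhibition of growth.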

Tests used:
Test in all cases: NCI tumour cell line growth inhibition, 48 h
786-0 renal = test system: 786-0 renal
A498 renal = test system: A498 renal
A549 NSCLC = test system: A549 NSCLC
ACHN renal = test system: ACHN renal
BT-549 breast = test system: BT-549 breast
CAKI-1 renal = test system: CAKI-1 renal
CCRF-CEM leukemia = test system: CCRF-CEM leukemia
COLO 205 colon = test system: COLO 205 colon
DU-145 prostate = test system: DU-145 prostate
EKVX NSCLC = test system: EKVX NSCLC
HCC-2998 colon = test system: HCC-2998 colon
HCT-116 colon = test system: HCT-116 colon
HCT-15 colon = test system: HCT-15 colon
HL-60(TB) leukemia = test system: HL-60(TB) leukemia
HOP-62 NSCLC = test system: HOP-62 NSCLC
HOP-92 NSCLC = test system: HOP-92 NSCLC
HS 578T breast = test system: HS 578T breast
HT29 colon = test system: HT29 colon
IGROV1 ovarian = test system: IGROV1 ovarian
K-562 leukemia = test system: K-562 leukemia
KM12 colon = test system: KM12 colon
LOX IMVI melanoma = test system: LOX IMVI melanoma
M14 melanoma = test system: M14 melanoma
MALME-3M melanoma = test system: MALME-3M melanoma
MCF7 breast = test system: MCF7 breast
MDA-MB-231 breast = test system: MDA-MB-231 breast
MDA-MB-435 = test system: MDA-MB-435
MDA-N = test system: MDA-N
MOLT-4 leukemia = test system: MOLT-4 leukemia
NCI-H226 lung = test system: NCI-H226 lung
NCI-H23 lung = test system: NCI-H23 lung
NCI-H460 lung = test system: NCI-H460 lung
NCI-H522 lung = test system: NCI-H522 lung
NCI/ADR-RES ovarian = test system: NCI/ADR-RES ovarian
OVCAR-3 ovarian = test system: OVCAR-3 ovarian
OVCAR-4 ovarian = test system: OVCAR-4 ovarian
OVCAR-5 ovarian = test system: OVCAR-5 ovarian
OVCAR-8 ovarian = test system: OVCAR-8 ovarian
PC-3 prostate = test system: PC-3 prostate
RPMI-8226 leukemia = test system: RPMI-8226 leukemia
RXF 393 renal = test system: RXF 393 renal
SF-268 CNS = test system: SF-268 CNS
SF-295 CNS = test system: SF-295 CNS
SF-539 CNS = test system: SF-539 CNS
SK-MEL-2 melanoma = test system: SK-MEL-2 melanoma
SK-MEL-28 melanoma = test system: SK-MEL-28 melanoma
SK-MEL-5 melanoma = test system: SK-MEL-5 melanoma
SK-OV-3 ovarian = test system: SK-OV-3 ovarian
SN12C renal = test system: SN12C renal
SNB-19 CNS = test system: SNB-19 CNS
SNB-75 CNS = test system: SNB-75 CNS
SR leukemia = test system: SR leukemia
SW-620 colon = test system: SW-620 colon
T-47D breast = test system: T-47D breast
TK-10 renal = test system: TK-10 renal
U251 CNS = test system: U251 CNS
UACC-257 melanoma = test system: UACC-257 melanoma
UACC-62 melanoma = test system: UACC-62 melanoma
UO-31 renal = test system: UO-31 renal

`C=CCN1C(=O)CNC1=S` was tested, and the TGI (786-0 renal) was > 100 µM, the TGI (A498 renal) was > 100 µM and the TGI (A549 NSCLC) was > 100 µM. The TGI (ACHN renal) was > 100 µM, the TGI (BT-549 breast) was > 100 µM and the TGI (CAKI-1 renal) was > 100 µM. The TGI (CCRF-CEM leukemia) was 77.6 µM, the TGI (COLO 205 colon) was > 100 µM and the TGI (DU-145 prostate) was > 100 µM. The TGI (EKVX NSCLC) was > 100 µM, the TGI (HCC-2998 colon) was > 100 µM and the TGI (HCT-116 colon) was > 100 µM. For the same compound, the TGI (HCT-15 colon) was > 100 µM, the TGI (HL-60(TB) leukemia) was 78.9 µM and the TGI (HOP-62 NSCLC) was > 100 µM. For the same compound, the TGI (HOP-92 NSCLC) was > 100 µM, the TGI (HS 578T breast) was > 100 µM and the TGI (HT29 colon) was > 100 µM. For the same compound, the TGI (IGROV1 ovarian) was > 100 µM, the TGI (K-562 leukemia) was > 100 µM and the TGI (KM12 colon) was > 100 µM. For the same compound, the TGI (LOX IMVI melanoma) was > 100 µM, the TGI (M14 melanoma) was > 100 µM and the TGI (MALME-3M melanoma) was > 100 µM. The TGI (MCF7 breast) was > 100 µM, the TGI (MDA-MB-231 breast) was > 100 µM and the TGI (MDA-MB-435) was > 100 µM. For the same compound, the TGI (MDA-N) was > 100 µM, the TGI (MOLT-4 leukemia) was > 100 µM and the TGI (NCI-H226 lung) was > 100 µM. The TGI (NCI-H23 lung) was > 100 µM, the TGI (NCI-H460 lung) was > 100 µM and the TGI (NCI-H522 lung) was > 100 µM. For the same compound, the TGI (NCI/ADR-RES ovarian) was > 100 µM, the TGI (OVCAR-3 ovarian) was > 100 µM and the TGI (OVCAR-4 ovarian) was > 100 µM. The TGI (OVCAR-5 ovarian) was > 100 µM, the TGI (OVCAR-8 ovarian) was > 100 µM and the TGI (PC-3 prostate) was > 100 µM. For the same compound, the TGI (RPMI-8226 leukemia) was > 100 µM, the TGI (RXF 393 renal) was > 100 µM and the TGI (SF-268 CNS) was > 100 µM. For the same compound, the TGI (SF-295 CNS) was > 100 µM, the TGI (SF-539 CNS) was > 100 µM and the TGI (SK-MEL-2 melanoma) was > 100 µM. The TGI (SK-MEL-28 melanoma) was > 100 µM, the TGI (SK-MEL-5 melanoma) was > 100 µM and the TGI (SK-OV-3 ovarian) was > 100 µM. For the same compound, the TGI (SN12C renal) was > 100 µM, the TGI (SNB-19 CNS) was > 100 µM and the TGI (SNB-75 CNS) was > 100 µM. The TGI (SR leukemia) was > 100 µM, the TGI (SW-620 colon) was > 100 µM and the TGI (T-47D breast) was > 100 µM. For the same compound, the TGI (TK-10 renal) was > 100 µM, the TGI (U251 CNS) was > 100 µM and the TGI (UACC-257 melanoma) was > 100 µM. The TGI (UACC-62 melanoma) was > 100 µM and the TGI (UO-31 renal) was > 100 µM.

`O=C1c2ccccc2C(=O)N1[C@@H](Cc1ccccc1)C(=O)n1cccc1CO` was tested, and the TGI (786-0 renal) was > 100 µM, the TGI (A498 renal) was > 100 µM and the TGI (A549 NSCLC) was > 100 µM. The TGI (ACHN renal) was > 100 µM, the TGI (BT-549 breast) was > 100 µM and the TGI (CAKI-1 renal) was > 100 µM. The TGI (CCRF-CEM leukemia) was > 100 µM, the TGI (COLO 205 colon) was > 100 µM and the TGI (DU-145 prostate) was > 100 µM. The TGI (EKVX NSCLC) was > 100 µM, the TGI (HCC-2998 colon) was > 100 µM and the TGI (HCT-116 colon) was > 100 µM. For the same compound, the TGI (HCT-15 colon) was > 100 µM, the TGI (HL-60(TB) leukemia) was > 100 µM and the TGI (HOP-62 NSCLC) was > 100 µM. The TGI (HOP-92 NSCLC) was > 100 µM, the TGI (HS 578T breast) was > 100 µM and the TGI (HT29 colon) was > 100 µM. The TGI (IGROV1 ovarian) was > 100 µM, the TGI (K-562 leukemia) was > 100 µM and the TGI (KM12 colon) was > 100 µM. For the same compound, the TGI (LOX IMVI melanoma) was > 100 µM, the TGI (M14 melanoma) was > 100 µM and the TGI (MALME-3M melanoma) was > 100 µM. For the same compound, the TGI (MCF7 breast) was > 100 µM, the TGI (MDA-MB-231 breast) was > 100 µM and the TGI (MDA-MB-435) was > 100 µM. For the same compound, the TGI (MDA-N) was > 100 µM, the TGI (MOLT-4 leukemia) was > 100 µM and the TGI (NCI-H226 lung) was > 100 µM. The TGI (NCI-H23 lung) was > 100 µM, the TGI (NCI-H460 lung) was > 100 µM and the TGI (NCI-H522 lung) was > 100 µM. For the same compound, the TGI (NCI/ADR-RES ovarian) was > 100 µM, the TGI (OVCAR-3 ovarian) was > 100 µM and the TGI (OVCAR-4 ovarian) was > 100 µM. The TGI (OVCAR-5 ovarian) was > 100 µM, the TGI (OVCAR-8 ovarian) was > 100 µM and the TGI (PC-3 prostate) was > 100 µM. For the same compound, the TGI (RPMI-8226 leukemia) was > 100 µM, the TGI (RXF 393 renal) was 56.6 µM and the TGI (SF-268 CNS) was > 100 µM. The TGI (SF-295 CNS) was > 100 µM, the TGI (SF-539 CNS) was > 100 µM and the TGI (SK-MEL-2 melanoma) was > 100 µM. For the same compound, the TGI (SK-MEL-28 melanoma) was > 100 µM, the TGI (SK-MEL-5 melanoma) was > 100 µM and the TGI (SK-OV-3 ovarian) was > 100 µM. The TGI (SN12C renal) was > 100 µM, the TGI (SNB-19 CNS) was > 100 µM and the TGI (SNB-75 CNS) was > 100 µM. For the same compound, the TGI (SR leukemia) was > 100 µM, the TGI (SW-620 colon) was > 100 µM and the TGI (T-47D breast) was > 100 µM. For the same compound, the TGI (TK-10 renal) was > 100 µM, the TGI (U251 CNS) was > 100 µM and the TGI (UACC-257 melanoma) was > 100 µM. For the same compound, the TGI (UACC-62 melanoma) was > 100 µM and the TGI (UO-31 renal) was > 100 µM.
